Reference: US20250340552A1, “COMPOUNDS, COMPOSITIONS AND METHODS OF TREATING DISORDERS” (HOTSPOT THERAPEUTICS, INC., priority 2022, published 2025)
Where two headings read alike, the source gives them in different places.

Target: T1, Cbl-B (Homo sapiens, UniProt Q13191)
T1 construct: MSD-Based Assay for Degradation of Cbl-B in THP-1 Cells; endogenous in cells; host or cells: THP-1 (title) / Jurkat (protocol text)
Assay: MSD-based assay for degradation of Cbl-B in THP-1 cells
Type: cell-based
Protocol: MSD-Based Assay for Degradation of Cbl-B in THP-1 Cells
Assay plates were then shaken at 600 rpm for 5 minutes, followed by incubation for 24 hours in the 37° C. TC incubator. […] Cell debris was then spun down at maximum speed (about 3200 g) for 30 min and lysates frozen in the −80° C. fridge. Meanwhile, MSD plates (L15XA-3) were coated overnight at 4° C. with 1 ug/mL capture antibody (Anti-Cbl-B antibody, 246C5a and Mouse mAB, ab54362). […] Blocking buffer was 3% Blocker A (MSD, R93BA-4) in TBST. Plates were washed 3× with 150 ul/well of 1×TBST and sample lysates (70 ul/well) then added, followed by shaking for 1 hr at RT, 600 rpm. […] Plates were again washed 3× with 150 ul/well of 1×TBST, followed by addition of Secondary Detection antibody, SULFO-TAG anti-species antibody (Anti Rabbit Antibody (R32AB-5) MSD, R32AB-1) at a final concentration of 1 ug/ml and 25 uL/well, followed by shaking for 1 hr at RT, 600 rpm. Plates were again washed 3× with 150 ul/well of 1×TBST, followed by addition of 1×MSD reading buffer (MSD, R92TC-2), 150 ul/well, diluted from 4× with water.
Compound Dmax were binned into A through D as follows: A indicates >70%, B indicates 50-70%, C indicates 30-50%, D indicates <30%.

[1] = Cbl-B degradation, Jurkat cells seeded (heading: THP-1 cells), 24 hours incubation, MSD readout
[2] = Cbl-B degradation, Jurkat cells seeded (heading: THP-1 cells), 24 hours incubation, MSD readout, read-out: Dmax

T1 sequence (Q13191 whole entry): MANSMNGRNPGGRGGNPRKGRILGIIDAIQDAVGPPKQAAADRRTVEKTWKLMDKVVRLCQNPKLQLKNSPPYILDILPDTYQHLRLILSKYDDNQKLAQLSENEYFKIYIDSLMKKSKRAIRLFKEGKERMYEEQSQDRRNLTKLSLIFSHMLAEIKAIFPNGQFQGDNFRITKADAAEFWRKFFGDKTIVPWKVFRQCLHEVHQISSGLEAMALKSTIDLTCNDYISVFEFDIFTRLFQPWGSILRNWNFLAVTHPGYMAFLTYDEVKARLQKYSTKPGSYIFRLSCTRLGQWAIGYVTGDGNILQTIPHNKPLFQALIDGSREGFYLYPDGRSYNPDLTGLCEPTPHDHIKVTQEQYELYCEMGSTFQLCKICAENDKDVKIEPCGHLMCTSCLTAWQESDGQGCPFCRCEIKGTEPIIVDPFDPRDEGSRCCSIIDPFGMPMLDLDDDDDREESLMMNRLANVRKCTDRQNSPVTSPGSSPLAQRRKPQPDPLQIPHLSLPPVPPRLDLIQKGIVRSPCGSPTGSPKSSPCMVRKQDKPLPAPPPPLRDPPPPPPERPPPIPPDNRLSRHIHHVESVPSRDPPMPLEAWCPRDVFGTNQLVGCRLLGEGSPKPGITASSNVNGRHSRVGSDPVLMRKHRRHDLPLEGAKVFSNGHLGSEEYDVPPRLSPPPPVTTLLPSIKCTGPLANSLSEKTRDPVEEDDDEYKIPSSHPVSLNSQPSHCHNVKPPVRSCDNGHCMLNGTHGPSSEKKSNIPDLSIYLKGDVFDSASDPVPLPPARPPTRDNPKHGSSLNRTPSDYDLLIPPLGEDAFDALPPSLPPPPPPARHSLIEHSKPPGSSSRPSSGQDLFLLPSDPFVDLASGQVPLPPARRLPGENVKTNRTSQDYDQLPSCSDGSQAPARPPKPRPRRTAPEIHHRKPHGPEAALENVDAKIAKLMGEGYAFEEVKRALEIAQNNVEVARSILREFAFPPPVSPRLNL

Compound | DC50 [1] | Dmax (THP-1) | Dmax [2]
CN(CCOC1CCN(Cc2cc(C(F)(F)F)c3cn(-c4cccc([C@H](c5nncn5C)C5CCC5)c4)c(=O)n3c2)CC1)C(=O)c1ccc(N2CC3CC(C2)N3c2ccc3c(c2)CN([C@@H]2CCC(=O)NC2=O)C3=O)cc1 (single isomer, unassigned) [Compound 89] | 1 to 10 µM | 30 to 50% | –
CN(CCOC1CCN(Cc2cc(C(F)(F)F)c3cn(-c4cccc([C@H](c5nncn5C)C5CCC5)c4)c(=O)n3c2)CC1)C(=O)c1ccc(N2CC3CC(C2)N3c2ccc3c(c2)CN([C@H]2CCC(=O)NC2=O)C3=O)cc1 (single isomer, unassigned) [Compound 90] | 1 to 10 µM | – | 30 to 50%
Cn1cnnc1[C@@H](c1cccc(-n2cc3c(C(F)(F)F)cc(CN4CCC(OCc5ccc(CN6CCN(c7ccc8c(c7)CN([C@@H]7CCC(=O)NC7=O)C8=O)CC6)cc5)CC4)cn3c2=O)c1)C1CCC1 (single isomer, unassigned) [Compound 91] | 0.3 to 1 µM | 30 to 50% | –
Cn1cnnc1[C@@H](c1cccc(-n2cc3c(C(F)(F)F)cc(CN4CCC(OCc5ccc(CN6CCN(c7ccc8c(c7)CN([C@H]7CCC(=O)NC7=O)C8=O)CC6)cc5)CC4)cn3c2=O)c1)C1CCC1 (single isomer, unassigned) [Compound 92] | < 0.03 µM | – | > 70%
Cn1cnnc1CC1(c2cccc(-n3cc4c(C(F)(F)F)cc(CN5CCC(OCc6ccc(CN7CCN(c8ccc9c(c8)CN([C@@H]8CCC(=O)NC8=O)C9=O)CC7)cc6)CC5)cn4c3=O)c2)COC1 (single isomer, unassigned) [Compound 93] | 0.03 to 0.3 µM | – | 50 to 70%
Cn1cnnc1CC1(c2cccc(-n3cc4c(C(F)(F)F)cc(CN5CCC(OCc6ccc(CN7CCN(c8ccc9c(c8)CN([C@H]8CCC(=O)NC8=O)C9=O)CC7)cc6)CC5)cn4c3=O)c2)COC1 (single isomer, unassigned) [Compound 94] | < 0.03 µM | – | > 70%
Cn1cnnc1[C@@H](c1cccc(-n2cc3c(C(F)(F)F)cc(-c4nccn4CCOCCN4CCC(CN5CCN(c6ccc7c(c6)CN([C@H]6CCC(=O)NC6=O)C7=O)CC5)CC4)cn3c2=O)c1)C1CCC1 (single isomer, unassigned) [Compound 98] | > 10 µM | – | < 30%
Cn1cnnc1CC1(c2cccc(-n3cc4c(C(F)(F)F)cc(-c5nccn5CCOCCN5CCC(CN6CCN(c7ccc8c(c7)CN([C@H]7CCC(=O)NC7=O)C8=O)CC6)CC5)cn4c3=O)c2)COC1 (single isomer, unassigned) [Compound 100] | > 10 µM | – | < 30%
CN(CCO[C@@H]1CCCN(Cc2cc(C(F)(F)F)c3cn(-c4cccc([C@H](c5nncn5C)C5CCC5)c4)c(=O)n3c2)C1)C(=O)c1ccc(N2CCN(c3ccc4c(c3)CN([C@@H]3CCC(=O)NC3=O)C4=O)CC2)cc1 (single isomer, unassigned) [Compound 103] | 0.3 to 1 µM | – | –
CN(CCO[C@H]1CCCN(Cc2cc(C(F)(F)F)c3cn(-c4cccc([C@H](c5nncn5C)C5CCC5)c4)c(=O)n3c2)C1)C(=O)c1ccc(N2CCN(c3ccc4c(c3)CN([C@@H]3CCC(=O)NC3=O)C4=O)CC2)cc1 (single isomer, unassigned) [Compound 105] | 0.03 to 0.3 µM | – | –
CN(CCOC1CCN(Cc2cc(C(F)(F)F)c3cn(-c4cccc([C@H](c5nncn5C)C5CCC5)c4)c(=O)n3c2)CC1)C(=O)c1ccc(C2CCN(c3ccc4c(c3)CN([C@@H]3CCC(=O)NC3=O)C4=O)CC2)cc1 (single isomer, unassigned) [Compound 107] | 0.03 to 0.3 µM | 50 to 70% | –
CN(CCOC1CCN(Cc2cc(C(F)(F)F)c3cn(-c4cccc([C@H](c5nncn5C)C5CCC5)c4)c(=O)n3c2)CC1)C(=O)c1ccc(C2CCN(c3ccc4c(c3)CN([C@H]3CCC(=O)NC3=O)C4=O)CC2)cc1 (single isomer, unassigned) [Compound 108] | < 0.03 µM | – | 50 to 70%
Cn1cnnc1[C@@H](c1cccc(-n2cc3c(C(F)(F)F)cc(CN4CCC(CCN5CCC(CN6CCN(c7ccc8c(c7)CN([C@@H]7CCC(=O)NC7=O)C8=O)CC6)CC5)CC4)cn3c2=O)c1)C1CCC1 (single isomer, unassigned) [Compound 109] | 0.03 to 0.3 µM | – | –
Cn1cnnc1[C@@H](c1cccc(-n2cc3c(C(F)(F)F)cc(CN4CCC(CCN5CCC(CN6CCN(c7ccc8c(c7)CN([C@H]7CCC(=O)NC7=O)C8=O)CC6)CC5)CC4)cn3c2=O)c1)C1CCC1 (single isomer, unassigned) [Compound 110] | < 0.03 µM | – | > 70%
Cn1cnnc1[C@@H](c1cccc(-n2cc3c(C(F)(F)F)cc(CN4CCC(CC(=O)N5CCC(CN6CCN(c7ccc8c(c7)CN([C@@H]7CCC(=O)NC7=O)C8=O)CC6)CC5)CC4)cn3c2=O)c1)C1CCC1 (single isomer, unassigned) [Compound 111] | 0.03 to 0.3 µM | – | 50 to 70%
Cn1cnnc1[C@@H](c1cccc(-n2cc3c(C(F)(F)F)cc(CN4CCC(CC(=O)N5CCC(CN6CCN(c7ccc8c(c7)CN([C@H]7CCC(=O)NC7=O)C8=O)CC6)CC5)CC4)cn3c2=O)c1)C1CCC1 (single isomer, unassigned) [Compound 112] | < 0.03 µM | – | > 70%
Cn1cnnc1[C@@H](c1cccc(-n2cc3c(C(F)(F)F)cc(CN4CCC(OCCc5ccc(CN6CCN(c7ccc8c(c7)CN([C@@H]7CCC(=O)NC7=O)C8=O)CC6)cc5)CC4)cn3c2=O)c1)C1CCC1 (single isomer, unassigned) [Compound 115] | > 10 µM | – | < 30%
CN(CC1CCN(Cc2cc(C(F)(F)F)c3cn(-c4cccc([C@H](c5nncn5C)C5CCC5)c4)c(=O)n3c2)CC1)C(=O)c1ccc(N2CCN(c3ccc4c(c3)CN([C@@H]3CCC(=O)NC3=O)C4=O)CC2)cc1 (single isomer, unassigned) [Compound 117] | 1 to 10 µM | – | 30 to 50%
CN(CC1CCN(Cc2cc(C(F)(F)F)c3cn(-c4cccc([C@H](c5nncn5C)C5CCC5)c4)c(=O)n3c2)CC1)C(=O)c1ccc(N2CCN(c3ccc4c(c3)CN([C@H]3CCC(=O)NC3=O)C4=O)CC2)cc1 (single isomer, unassigned) [Compound 118] | < 0.03 µM | – | > 70%
CN(CCC(=O)N1CCC(CN2CCN(c3ccc4c(c3)CN([C@@H]3CCC(=O)NC3=O)C4=O)CC2)CC1)Cc1cc(C(F)(F)F)c2cn(-c3cccc([C@H](c4nncn4C)C4CCC4)c3)c(=O)n2c1 (single isomer, unassigned) [Compound 119] | > 10 µM | – | < 30%
CN(CCC(=O)N1CCC(CN2CCN(c3ccc4c(c3)CN([C@H]3CCC(=O)NC3=O)C4=O)CC2)CC1)Cc1cc(C(F)(F)F)c2cn(-c3cccc([C@H](c4nncn4C)C4CCC4)c3)c(=O)n2c1 (single isomer, unassigned) [Compound 120] | 0.03 to 0.3 µM | – | 50 to 70%
Cn1cnnc1[C@@H](c1cccc(-n2cc3c(C(F)(F)F)cc(CN4CCN(CC(=O)N5CCC(CN6CCN(c7ccc8c(c7)CN([C@@H]7CCC(=O)NC7=O)C8=O)CC6)CC5)CC4)cn3c2=O)c1)C1CCC1 (single isomer, unassigned) [Compound 121] | 0.03 to 0.3 µM | – | 50 to 70%
Cn1cnnc1[C@@H](c1cccc(-n2cc3c(C(F)(F)F)cc(CN4CCN(CC(=O)N5CCC(CN6CCN(c7ccc8c(c7)CN([C@H]7CCC(=O)NC7=O)C8=O)CC6)CC5)CC4)cn3c2=O)c1)C1CCC1 (single isomer, unassigned) [Compound 122] | < 0.03 µM | – | > 70%
CN(CCCN1CCN(Cc2cc(C(F)(F)F)c3cn(-c4cccc([C@H](c5nncn5C)C5CCC5)c4)c(=O)n3c2)CC1)C(=O)c1ccc(N2CCN(c3ccc4c(c3)CN([C@@H]3CCC(=O)NC3=O)C4=O)CC2)cc1 (single isomer, unassigned) [Compound 123] | < 0.03 µM | – | > 70%
CN(CCCN1CCN(Cc2cc(C(F)(F)F)c3cn(-c4cccc([C@H](c5nncn5C)C5CCC5)c4)c(=O)n3c2)CC1)C(=O)c1ccc(N2CCN(c3ccc4c(c3)CN([C@H]3CCC(=O)NC3=O)C4=O)CC2)cc1 (single isomer, unassigned) [Compound 124] | < 0.03 µM | – | > 70%
Cn1cnnc1[C@@H](c1cccc(-n2cc3c(C(F)(F)F)cc(CN4CCN(CCc5ccc(N6CCN(c7ccc8c(c7)CN([C@@H]7CCC(=O)NC7=O)C8=O)CC6)cc5)CC4)cn3c2=O)c1)C1CCC1 (single isomer, unassigned) [Compound 125] | 0.03 to 0.3 µM | – | 50 to 70%
Cn1cnnc1[C@@H](c1cccc(-n2cc3c(C(F)(F)F)cc(CN4CCN(CCc5ccc(N6CCN(c7ccc8c(c7)CN([C@H]7CCC(=O)NC7=O)C8=O)CC6)cc5)CC4)cn3c2=O)c1)C1CCC1 (single isomer, unassigned) [Compound 126] | < 0.03 µM | – | > 70%
Cn1cnnc1[C@@H](c1cccc(-n2cc3c(C(F)(F)F)cc(CN4CCC[C@H](OCCc5ccc(CN6CCN(c7ccc8c(c7)CN([C@@H]7CCC(=O)NC7=O)C8=O)CC6)cc5)C4)cn3c2=O)c1)C1CCC1 (single isomer, unassigned) [Compound 127] | > 10 µM | – | < 30%
